According to patent US8183364B2, “Substituted porphyrins” (Duke University, priority 2004, dated 2012):
Read-outs that look alike come from different tables or passages of the source.

Key:
[1] = Oxidative degradation in the presence of ascorbic acid under aerobic conditions; assay type: physicochemical; conditions: pH 7.8 (0.05 M tris buffer)
Protocol: Under these conditions porphyrins underwent oxidative degradation. As previously observed (Batinic-Haberle et al, J. Chem. Soc., Dalton Trans., pgs. 2689-2696 (2002)), those porphyrins that are of more positive E1/2 are stabilized in +2 oxidation state and are less prone to oxidative damage. Accordingly, 27% and 24% of MnTE-2-PyP^5+ and MnTMOE-2-PyP^5+ undergo degradation within 2 hours, but only 2% of MnTM,MOE-2-ImP^5+ and MnTDMOE-2-ImP^5+ and 3% of MnTDE-2-ImP^5+.

[2] = Catalysis of O2.^− dismutation by pulse radiolysis; assay type: biochemical; conditions: pulse radiolysis, pH 7.8, (22 ± 1) °C; kcat ±30%
Protocol: Catalysis of O2.^− dismutation. The catalytic rate constants for the O2.^− dismutation were determined by pulse radiolysis in 0.05 M phosphate buffer (pH 7.8) at (22±1)° C. as previously described (Batinic-Haberle et al, Inorg. Chem. 40:726 (2001)). In the present study 10 mM formate was used as a scavenger for H. atoms and .OH radicals, which leads first to production of CO2.^− radicals and then to O2.^− radicals. This system is known to lead to conversion of all primary radicals of water radiolysis into O2.^−.
Catalysis of O2.^− dismutation. Pulse radiolysis was used to assess the SOD-like activities of the Mn porphyrins studied. The initial concentration of O2.^− produced by the pulse was about 27 μM, and the concentration of the Mn porphyrin was between 0.5 and 5 μM. The dismutation of O2.^− was followed at 280 nm. The catalytic rate constant was determined from the linear dependence of kobs upon the concentration of the catalyst (Batinic-Haberle et al, Inorg. Chem. 40:726 (2001)). All the new compounds have high O2.^− dismuting ability. The magnitude of the catalysis is due to the interplay of the electron-withdrawing effects of quaternized ortho pyridyl or di-ortho imidazolyl groups, favorable electrostatics, and the solvation of the metal site.

[3] = Thin-layer chromatography on silica gel (retention factor Rf, lipophilicity); assay type: physicochemical; conditions: silica gel TLC, KNO3-saturated H2O/H2O/acetonitrile = 1/1/8
Protocol: Uv/vis spectra of porphyrin ligands and their Mn complexes were taken on a Shimadzu UV-2501-PC spectrophotometer at 25° C. Thin-layer chromatography of ligands and Mn complexes was done using silica gel plates with KNO3satH2O/H2O/acetonitrile=1/1/8.
Thin-layer chromatography. All new methoxyporphyrins are more lipophilic than MnTE-2-PyP^5+ and MnTDE-2-ImP^5+.

[4] = Electrochemistry: cyclic voltammetry of the Mn(III)/Mn(II) redox couple; assay type: physicochemical; conditions: Mn(III)/Mn(II); 0.1 M NaCl, 0.05 M phosphate buffer, pH 7.8; ±3 mV
Protocol: Electrochemistry. Measurements were performed on a CH Instruments Model 600 Voltammetric Analyzer (Spasojevic and Batinic-Haberle, Inorg. Chim. Acta. 317:230-242 (2001), Batinic-Haberle et al, J. Biol. Chem. 273:24521-24528 (1998), Batinic-Haberle et al, Inorg. Chem. 38:4011-4022 (1999)). A three-electrode system in a small volume cell (0.5 mL to 3 mL), with a 3 mm-diameter glassy carbon button working electrode (Bioanalytical Systems), plus the Ag/AgCl reference and Pt auxiliary electrodes was used. Argon-purged solutions contained 0.05 M phosphate buffer, pH 7.8, 0.1 M NaCl, and 0.5 mM metalloporphyrin. The scan rates were 0.01-0.5 V/s, typically 0.1 V/s. The potentials were standardized against the potassium ferrocyanide/ferricyanide (Kolthof and Tomsicek, J. Phys. Chem. 39:945 (1935)) and/or against MnTE-2-PyP^5+ (Spasojevic and Batinic-Haberle, Inorg. Chim. Acta. 317:230-242 (2001), Batinic-Haberle et al, J. Biol. Chem. 273:24521-24528 (1998), Batinic-Haberle et al, Inorg. Chem. 38:4011-4022 (1999)).
Electrochemistry. All cyclic voltammograms, ascribed to the Mn(III)/Mn(II) redox couple, are reversible. The E1/2 of di-ortho ethylimidazolylporphyrin, MnTDE-2-ImP^5+ is 118 mV more positive than of ortho ethylpyridylporphyrin, MnTE-2-PyP^5+ (+228 mV vs NHE), as a consequence of charge delocalization. A similar difference of 114 mV was seen between their methoxyethyl analogues. Mn porphyrins bearing N-pyridyl substituents of the same length, MnTnBu-PyP^5+ and MnTMOE-2-PyP^5+, have nearly identical E1/2 of +254 and +251 mV vs NHE, which is 26 and 23 mV higher than that of MnTE-PyP^5+.

[5] = Mn(III)/Mn(II); 0.1 M NaCl, 0.05 M phosphate buffer, pH 7.8; data from Batinic-Haberle et al 2002; cited from earlier work
[6] = pH 7.8, (22 ± 1) °C; data from Batinic-Haberle et al 2002 (MnTE-2-PyP: Inorg. Chem. 40:726 (2001)); cited from earlier work
[7] = data from Batinic-Haberle et al 2002, cited from earlier work; for Rf (compound path/solvent path), metal-free porphyrin (in parenthesis): metal-free ligand of the named Mn porphyrin; for Rf (compound path/solvent path), Mn complex: silica gel TLC, KNO3-saturated H2O/H2O/acetonitrile = 1/1/8
[8] = tested on: SOD-deficient JI132 E. coli; experiment: Aerobic growth of SOD-deficient E. coli; assay type: cell-based; conditions: for aerobic growth of SOD-deficient E. coli: 5AA minimal medium, 25 μM; for protection of SOD-deficient E. coli / facilitation of aerobic growth of SOD-deficient E. coli, dependence on concentration: M9CA medium; for facilitation of aerobic growth of SOD-deficient E. coli, dependence on concentration: 1-30 μM
Protocol: (§1) Aerobic growth of E. coli. Bacterial strains of E. coli used were wild type AB1157 (F-thr-1 leu-1 proA2 his-4 argE3 thr-1 lacY1 galK2 rpsL supE44 ara-14 xyl-15 mtl-1 tsx-33) and SOD-deficient JI132 (same as AB1157 plus (sodA::mudPR13)25 (sodB-kan)1-Δ2. Culture media were prepared as follows. M9 medium: 6 g/L Na2HPO4, 3 g/L KH2PO4, 0.5 g/L NaCl, 1 g/L NH4Cl, 2 mM MgSO4, 0.1 mM CaCl2, adjusted to pH 7.4 with NaOH, and supplemented with 0.2% glucose, 3 mg/L each of D-panthotenic acid and thiamine. M9CA medium contained M9 medium plus 0.2% casamino acids. 5-amino acid (5AA) minimal medium contained M9 medium plus 0.5 mM each of threonine, leucine, histidine, proline and arginine (Faulkner et al, J. Biocl. Chem. 269:23471 (1994)).
(§2) AB 1157 and 31132 were precultured overnight aerobically in M9CA medium at 37° C. and were then diluted to 3×10^7 cells/mL into 5 mL M9CA medium. JI132 was precultured in the presence of 20 μg/mL chloramphenicol and 500 μg/mL kanamycin. When the cells are transferred from M9CA medium to 5AA minimal medium cultures were first centrifuged and washed twice with the 5AA medium before final dilution in it. The centrifugation was conducted at room temperature to avoid temperature shocks. Cultures without and with Mn porphyrins (0.1 to 30 μM) were grown aerobically in 5 mL volume in test tubes in a thermostated orbital shaker (45° angle, 200 rpm) at 37° C.). Rates of growth were followed turbidimetrically at 700 nm to minimize interference from the absorbance of test compounds.

wild type AB1157 E. coli = experiment: Aerobic growth of wild type E. coli (toxicity); assay type: cell-based; conditions: separate experiment
Protocol: as §1, §2

Row | SMILES | degradation within 2 hours [1] [%] | log kcat for O2^− dismutation [2] | Rf (compound path/solvent path), metal-free porphyrin (in parenthesis) ([3]; metal-free ligand of the named Mn porphyrin) | Rf (compound path/solvent path), Mn complex [3] | Metal-centered redox potential E1/2 [4] | Metal-centered redox potential E1/2 [5] | log kcat for O2^− dismutation [6] | Rf (compound path/solvent path), metal-free porphyrin (in parenthesis) [7] | Rf (compound path/solvent path), Mn complex [7] | aerobic growth of SOD-deficient E. coli [8] | protection of SOD-deficient E. coli ([8]; 1 μM) | protection of SOD-deficient E. coli ([8]; 30 μM) | facilitation of aerobic growth of SOD-deficient E. coli, dependence on concentration [8] | toxicity of metal-free vs Mn(III) complex (wild type AB1157 E. coli)
1 | COCCn1cc[n+](C)c1-c1c2nc(c(-c3n(CCOC)cc[n+]3C)c3ccc([n-]3)c(-c3n(CCOC)cc[n+]3C)c3nc(c(-c4n(CCOC)cc[n+]4C)c4ccc1[n-]4)C=C3)C=C2.[Mn+3] [MnTM,MOE-2-ImP^5+, Mn(III) tetrakis 5,10,15,20-tetrakis[N-methyl-N′-(2-methoxyethyl)imidazolium-2-yl]porphyrin] | 2 | 7.98 | 0.17 | 0.15 | +356 mV vs NHE |  |  |  |  |  |  |  |  | 
2 | C[n+]1ccccc1-c1c2nc(c(-c3cccc[n+]3C)c3ccc([n-]3)c(-c3cccc[n+]3C)c3nc(c(-c4cccc[n+]4C)c4ccc1[n-]4)C=C3)C=C2.[Mn+3] [MnTM-2-PyP^5+] |  |  |  |  |  | +220 mV vs NHE | 7.79 | 0.13 | 0.09 | not far behind | low protection | either much higher or near full protection | concentration-dependent manner | 
3 | CCC[n+]1ccccc1-c1c2nc(c(-c3cccc[n+]3CCC)c3ccc([n-]3)c(-c3cccc[n+]3CCC)c3nc(c(-c4cccc[n+]4CCC)c4ccc1[n-]4)C=C3)C=C2.[Mn+3] [MnTnPr-2-PyP^5+] |  |  |  |  |  | +238 mV vs NHE | 7.38 | 0.31 | 0.20 | most effective | low protection | either much higher or near full protection | concentration-dependent manner | 
4 | CCCCCCCC[n+]1ccccc1-c1c2nc(c(-c3cccc[n+]3CCCCCCCC)c3ccc([nH]3)c(-c3cccc[n+]3CCCCCCCC)c3nc(c(-c4cccc[n+]4CCCCCCCC)c4ccc1[nH]4)C=C3)C=C2 [metal-free n-octyl] |  |  |  |  |  |  |  |  |  |  |  |  |  | equally toxic
